Results on three compounds are retold here after ChEMBL document CHEMBL1201862, “PubChem BioAssay data set” (2004).

One assay addresses T1, Protein RecA (Mycobacterium tuberculosis, UniProt P9WHJ3).
T1 sequence (P9WHJ3 whole entry): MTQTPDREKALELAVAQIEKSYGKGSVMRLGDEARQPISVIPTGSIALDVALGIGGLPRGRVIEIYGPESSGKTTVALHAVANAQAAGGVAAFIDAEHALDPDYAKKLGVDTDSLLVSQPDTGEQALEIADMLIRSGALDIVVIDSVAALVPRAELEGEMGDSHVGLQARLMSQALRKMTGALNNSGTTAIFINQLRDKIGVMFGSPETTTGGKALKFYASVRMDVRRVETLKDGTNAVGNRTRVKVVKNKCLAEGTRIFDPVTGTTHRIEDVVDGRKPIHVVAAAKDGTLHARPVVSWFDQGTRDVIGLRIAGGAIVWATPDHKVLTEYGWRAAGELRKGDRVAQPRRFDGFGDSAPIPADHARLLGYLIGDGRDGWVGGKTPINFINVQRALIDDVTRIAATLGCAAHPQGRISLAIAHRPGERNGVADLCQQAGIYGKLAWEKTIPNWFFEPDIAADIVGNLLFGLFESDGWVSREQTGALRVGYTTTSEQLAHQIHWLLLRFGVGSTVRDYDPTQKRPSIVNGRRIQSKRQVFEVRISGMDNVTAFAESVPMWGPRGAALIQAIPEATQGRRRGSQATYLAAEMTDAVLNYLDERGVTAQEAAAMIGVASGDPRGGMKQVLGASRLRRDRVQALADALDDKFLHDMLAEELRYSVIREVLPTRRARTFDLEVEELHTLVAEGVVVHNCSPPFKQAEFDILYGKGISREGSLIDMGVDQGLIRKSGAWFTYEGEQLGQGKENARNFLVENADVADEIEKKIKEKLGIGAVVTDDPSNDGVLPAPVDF
Description: Fluorescence Cell-Free Homogeneous Dose Retest to Identify Inhibitors of RecA-Intein Splicing Activity. [Related pubchem assays (depositor defined):AID2097, AID2223, AID489010, AID492950]. It is filed as functional.

In assay [1] the target is T2, Replicative DNA helicase DnaB (Mycobacterium tuberculosis, UniProt P9WMR3).
T2 sequence (P9WMR3 whole entry): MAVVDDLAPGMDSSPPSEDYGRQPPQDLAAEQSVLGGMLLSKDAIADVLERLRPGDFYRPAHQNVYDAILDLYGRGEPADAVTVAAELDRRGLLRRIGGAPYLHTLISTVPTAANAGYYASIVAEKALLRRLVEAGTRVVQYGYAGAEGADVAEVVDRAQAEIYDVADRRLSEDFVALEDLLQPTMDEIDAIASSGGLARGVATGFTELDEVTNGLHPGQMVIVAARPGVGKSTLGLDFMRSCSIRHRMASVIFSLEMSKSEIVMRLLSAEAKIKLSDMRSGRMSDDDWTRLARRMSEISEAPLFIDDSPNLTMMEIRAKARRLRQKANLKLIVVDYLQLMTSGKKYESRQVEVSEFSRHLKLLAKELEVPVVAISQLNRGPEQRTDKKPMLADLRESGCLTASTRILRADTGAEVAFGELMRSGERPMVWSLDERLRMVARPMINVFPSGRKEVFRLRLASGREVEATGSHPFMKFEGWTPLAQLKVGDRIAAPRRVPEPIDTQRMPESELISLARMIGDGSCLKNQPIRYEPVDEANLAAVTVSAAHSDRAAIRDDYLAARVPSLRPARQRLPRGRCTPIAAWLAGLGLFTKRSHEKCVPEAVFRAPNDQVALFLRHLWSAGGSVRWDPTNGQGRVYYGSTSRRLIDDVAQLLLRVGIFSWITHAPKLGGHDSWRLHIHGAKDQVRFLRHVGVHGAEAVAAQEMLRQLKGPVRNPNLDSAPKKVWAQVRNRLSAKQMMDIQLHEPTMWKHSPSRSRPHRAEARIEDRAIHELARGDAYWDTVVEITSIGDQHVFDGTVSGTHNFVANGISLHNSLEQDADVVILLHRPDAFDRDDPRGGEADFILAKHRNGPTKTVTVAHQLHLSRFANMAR
As to the kind of experiment: DnaB intein splicing inhibitors, dose response, biochemical, cell-free fluorescence (AID 449749). It counts as functional.

The target of assay [2] is T3, Tyrosyl-DNA phosphodiesterase 2 (Homo sapiens, UniProt O95551).
T3 sequence (O95551 whole entry): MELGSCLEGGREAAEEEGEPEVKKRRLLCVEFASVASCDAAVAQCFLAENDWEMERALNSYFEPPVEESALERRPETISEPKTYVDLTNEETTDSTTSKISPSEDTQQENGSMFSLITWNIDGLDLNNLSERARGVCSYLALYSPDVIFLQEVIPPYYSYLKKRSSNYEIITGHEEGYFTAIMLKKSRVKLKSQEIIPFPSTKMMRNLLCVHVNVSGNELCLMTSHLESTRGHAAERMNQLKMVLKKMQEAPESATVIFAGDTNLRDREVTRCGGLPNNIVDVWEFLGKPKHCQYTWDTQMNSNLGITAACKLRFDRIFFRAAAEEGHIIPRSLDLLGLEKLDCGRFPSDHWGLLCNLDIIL
Description: potency against TDP2 phosphodiesterase activity – biochemical, epi absorbance, IC50, dose response (AID 743297).

Active and inactive are the calls of the source.

By EC50 is commonly meant the concentration needed to bring the measured effect to its halfway point. What is called AC50 is the midpoint of the concentration-response curve, whichever way the signal moves. As a reminder, the IC50 is the midpoint of a concentration-inhibition curve. For the compound `CC(C)=CCC1=C(OCC(=O)O)C(=O)c2ccccc2C1=O`, at Protein RecA, the EC50 is 7.75 µM (active). The AC50 in assay [1] is 9.19 µM (active). The IC50 in assay [2] is 23.6 µM (inactive).
On to `Cc1[nH][nH]c(=O)c1C(c1c(C)[nH][nH]c1=O)c1cn(Cc2ccccc2Cl)c2ccccc12`, for which the EC50 at Protein RecA was 0.299 µM (active). Further, the AC50 in assay [1] is 0.242 µM (active). For the same compound, the IC50 in assay [2] is 54.2 µM (inactive).
Take `Cc1cccc(NC2=C(NC(=O)c3ccccc3)C(=O)c3ccccc3C2=O)c1`: the EC50 at Protein RecA is 1.71 µM (active). In addition, in assay [1], the half-maximal activity concentration (AC50) is 3.96 µM (active).
